Data: patent publication US8822674B2, “Crystal form of 4-isopropylphenyl glucitol compound and process for production thereof” (Taisho Pharmaceutical Co., Ltd, priority 2010, dated 2014)

Experiments:
[1] = molecular target: T1, human SGLT1 (Homo sapiens, UniProt P13866); assay: Inhibition test for sodium-dependent sugar uptake in CHO-K1 cells stably expressing human SGLT1; format: cell-based; conditions: summary of Table 1
T1 construct: expressed in transfected cells; host or cells: CHO-K1
T1 sequence (P13866 1-664): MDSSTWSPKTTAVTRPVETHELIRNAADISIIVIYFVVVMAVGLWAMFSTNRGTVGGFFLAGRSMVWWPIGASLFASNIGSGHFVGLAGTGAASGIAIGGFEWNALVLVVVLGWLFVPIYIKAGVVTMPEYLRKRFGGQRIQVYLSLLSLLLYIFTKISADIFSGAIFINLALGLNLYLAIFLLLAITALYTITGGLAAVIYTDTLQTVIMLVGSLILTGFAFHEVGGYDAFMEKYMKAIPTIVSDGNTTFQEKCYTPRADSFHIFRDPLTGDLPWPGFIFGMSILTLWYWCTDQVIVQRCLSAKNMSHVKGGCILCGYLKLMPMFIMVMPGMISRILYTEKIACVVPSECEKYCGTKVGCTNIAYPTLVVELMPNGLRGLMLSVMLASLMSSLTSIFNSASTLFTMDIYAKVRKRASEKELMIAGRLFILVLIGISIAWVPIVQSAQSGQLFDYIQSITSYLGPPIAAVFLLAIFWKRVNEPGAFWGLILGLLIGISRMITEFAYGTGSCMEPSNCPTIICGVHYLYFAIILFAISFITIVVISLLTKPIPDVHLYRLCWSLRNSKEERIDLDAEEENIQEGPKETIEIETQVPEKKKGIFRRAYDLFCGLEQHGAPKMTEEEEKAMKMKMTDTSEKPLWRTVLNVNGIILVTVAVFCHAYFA
Method: (§1) A plasmid vector expressing human SGLT1 protein was transfected into CHO-K1 cells using lipofectamine 2000 (Invitrogen). The cells were cultured in the presence of 500 μg/mL geneticin to select resistant strains, followed by screening in the system shown below using sugar uptake capacity as an indicator to obtain SGLT1-expressing cells.
(§2) The stably expressing cells prepared above were used in the following test.
Pretreatment buffer (140 mM choline chloride, 2 mM KCl, 1 mM CaCl2, 1 mM MgCl2, 10 mM HEPES/5 mM Tris, pH 7.4) was added in a volume of 200 μL to the cells stably expressing SGLT1 or 2 mL for Method A and 200 μL for Method B to the cells stably expressing SGLT2, followed by incubation for 20 minutes. The pretreatment buffer was removed and replaced by uptake buffer containing a test compound (1 mM methyl α-D-glucopyranoside (containing [^14C]methyl α-D-glucopyranoside), 140 mM NaCl, 2 mM KCl, 1 mM CaCl2, 1 mM MgCl2, 10 mM HEPES/5 mM Tris, pH 7.4) in a volume of 75 μL for SGLT1 and SGLT2 in Method B or 200 μL for SGLT2 in Method A. Uptake reaction was performed at 37° C. for 30 minutes (SGLT1) or 60 minutes (SGLT2). […] A liquid scintillator (Perkin Elmer) was added and mixed well with each sample, followed by measurement of radioactivity using a β-ray analyzer. […]

[2] = tested on: streptozotocin (STZ)-induced diabetic rats; assay: Oral glucose tolerance test in streptozotocin diabetic model rats; format: in vivo, rat
Method: SD/IGS rats at 7 weeks of age (male, Charles River Laboratories Japan Inc.) were fasted for about 16 hours and then injected with 50 mg/kg streptozotocin (STZ) via the caudal vein under ether anesthesia to prepare diabetic model rats. Similarly, another group of SD/IGS rats at 7 weeks of age was injected with 1.25 mmol/L citric acid in physiological saline (1 mL/kg) via the tail vein under ether anesthesia to prepare normal control rats. At one week after injection of STZ or 1.25 mmol/L citric acid in physiological saline, the rats (8 weeks old) were provided for an oral glucose tolerance test. […]
Blood was collected from the caudal veins of the rats under ether anesthesia with the use of a heparin-coated blood collecting tube and centrifuged, whereafter blood plasma was separated. Plasma glucose concentrations were quantified by measurement with a Glucose CII-Test Wako (Wako Pure Chemical Industries, Ltd., Japan). To determine the intensity of hypoglycemic effect, the blood glucose level before drug administration was subtracted from each blood glucose level measured until one hour after oral administration in each drug group, and the resulting values were analyzed by the trapezoidal method to calculate an increment in the area under the curve for glucose (ΔAUC), which was expressed as a decrease relative to ΔAUC of the control group.

[3] = molecular target: T2, human SGLT2 protein modified to have LeuGluSerArgGlyProVal added to the carboxy-terminal final residue (Homo sapiens, UniProt P31639); assay: Inhibition test for sodium-dependent sugar uptake in CHO-K1 cells stably expressing human SGLT2, Method A; format: cell-based; conditions: summary of Table 1; method not specified
T2 construct: expressed in transfected cells; host or cells: CHO-K1
T2 sequence (P31639 with tags, fused parts or gaps): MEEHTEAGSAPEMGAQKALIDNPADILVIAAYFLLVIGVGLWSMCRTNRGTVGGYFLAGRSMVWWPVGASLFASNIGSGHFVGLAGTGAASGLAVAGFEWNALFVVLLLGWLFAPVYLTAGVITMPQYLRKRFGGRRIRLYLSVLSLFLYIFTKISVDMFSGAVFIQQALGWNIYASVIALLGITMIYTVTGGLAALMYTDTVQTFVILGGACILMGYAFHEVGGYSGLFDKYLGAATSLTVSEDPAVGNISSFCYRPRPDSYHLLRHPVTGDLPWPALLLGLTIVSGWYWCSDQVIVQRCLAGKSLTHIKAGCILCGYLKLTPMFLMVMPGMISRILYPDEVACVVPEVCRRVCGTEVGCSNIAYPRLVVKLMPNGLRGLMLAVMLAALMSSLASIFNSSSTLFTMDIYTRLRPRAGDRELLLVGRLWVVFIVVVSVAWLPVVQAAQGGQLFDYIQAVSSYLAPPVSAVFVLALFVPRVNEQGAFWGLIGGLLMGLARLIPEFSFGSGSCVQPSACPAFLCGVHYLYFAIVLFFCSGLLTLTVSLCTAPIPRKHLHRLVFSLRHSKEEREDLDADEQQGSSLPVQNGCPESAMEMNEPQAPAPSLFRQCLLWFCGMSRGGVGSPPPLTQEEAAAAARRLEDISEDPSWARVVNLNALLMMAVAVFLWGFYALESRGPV
Method: as §1, with “Method A (described in WO2007/136116): A” for “A”, “SGLT2” for “SGLT1”, “protein modified to have LeuGluSerArgGlyProVal added to the carboxy-terminal final residue” for “protein”, “hygromycin B” for “geneticin”, “SGLT2-expressing” for “SGLT1-expressing”
as §2
Pretreatment buffer (140 mM choline chloride, 2 mM KCl, 1 mM CaCl2, 1 mM MgCl2, 10 mM HEPES/5 mM Tris, pH 7.4) was added in a volume of 200 μL to the cells stably expressing SGLT1 or 2 mL for Method A and 200 μL for Method B to the cells stably expressing SGLT2, followed by incubation for 20 minutes. […] A liquid scintillator (Perkin Elmer) was added and mixed well with each sample, followed by measurement of radioactivity using a β-ray analyzer. […]

[4] = Renal concentration after repeated oral administration for 3 days; format: in vivo, rat; conditions: 3 mg/kg for 3 consecutive days, subsequent day 2
Method: At 48 hours after the final drug administration, the rats were exsanguinated via the postcaval vein under isoflurane anesthesia, and their kidneys were excised after they were confirmed to be euthanized. After the tissue surface was washed with physiological saline, each tissue was measured for its weight and homogenized in 4 volumes of purified water under ice cooling. The drug concentration in each homogenate was determined in the same manner as shown in Test Example 3(1) by LC-MS/MS using compound II as an internal standard substance.

[5] = Renal concentrations until one week after single oral administration; format: in vivo; conditions: Sprague-Dawley (SD/IGS), rat, 1 mg/kg po, male Sprague-Dawley rats, kidney
Method: SD/IGS rats at 7 weeks of age (male, non-fasting, Charles River Laboratories Japan Inc.) were orally administered with compound 4, 10 or 33 (1 mg/kg each) or compound 11 (0.3 mg/kg) prepared in a 0.5% aqueous CMC solution. At 24, 72 and 168 hours after drug administration, the rats were exsanguinated via the postcaval vein under ether anesthesia, and their kidneys were excised after they were confirmed to be euthanized. After the tissue surface was washed with physiological saline, each tissue was measured for its weight and homogenized in 4 volumes of purified water under ice cooling. To each homogenate, an acetonitrile/methanol solution containing an internal standard substance was added to remove proteins, and the supernatant was then subjected to LC-MS/MS (Applied Biosystems API3000). Drug-derived ions generated by electrospray ionization in positive ion mode were detected by selective reaction monitoring. The peak area of the resulting extracted ion chromatogram was analyzed by the internal standard method to calculate the drug concentration in the homogenate.
As the internal standard material for Compounds 10 and 33, (1S)-1,5-anhydro-1-[5-(4-ethoxybenzyl)-2-methoxy-4-methylphenyl]-1-thio-D-glucitol,ethyl-D5 was used. As the internal standard materials for Compounds 4 and 11, Compound II and deuterium-labeled Compound II (trishydroxymethyl-D6; —C(CD2OH)3), respectively, were used.

SMILES | SGLT1 inhibiting activity (in words) [1] | STZ rats OGTT % inhibition ΔAUC0−1 h (mg/dl) @1 mg/kg/po ([2]; STZ-induced diabetic rats, oral dose 1 mg/kg, glucose 2 g/kg, versus vehicle control) [%] | hypoglycemic action in the glucose tolerance test (in words) ([2]; oral administration of 1 mg/kg) | SGLT2 inhibiting activity (in words) [3] | remaining in the kidney after repeated administration (in words) [4] | concentration at 1 day ([5]; 1 day, read-out: Concentration of compounds in kidney after single oral administration, After 1 day) [ng/g] | concentration at 3 days ([5]; 3 days, read-out: Concentration of compounds in kidney after single oral administration, After 3 days) [ng/g] | concentration at 7 days ([5]; 7 days, read-out: Concentration of compounds in kidney after single oral administration, After 7 days) [ng/g]
COc1cc(C(C)C)c(Cc2ccc(/C=C/C(C)(C)C(=O)NC(C)(C)C(=O)NCCN(C)C)cc2)cc1[C@@H]1O[C@H](CO)[C@@H](O)[C@H](O)[C@H]1O [compound (A), (1S)-1,5-anhydro-1-[5-(4-{(1E)-4-[(1-{[2-(dimethylamino)ethyl]amino}-2-methyl-1-oxopropan-2-yl)amino]-3,3-dimethyl-4-oxobut-1-en-1-yl}benzyl)-2-methoxy-4-(propan-2-yl)phenyl]-D-glucitol] | strong | 65 | potent | some, although weak | did not remain in the kidney |  |  | 
Cc1cc(O)c([C@@H]2O[C@H](CO)[C@@H](O)[C@H](O)[C@H]2O)cc1Cc1ccc(CCCC(=O)NC(C)(C)C(N)=O)cc1 [compound 4] |  |  |  |  |  | 68.4 ± 7.49 | 85.5 ± 23.1 | 76.3 ± 15.5
